Reference: PubChem BioAssay (NCI)
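In this assay, cells in 96-well plates receive the compound at five concentrations for 48 hours. Endpoints are linearly interpolated between the surrounding concentrations. TGI: total growth inhibition.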

Columns and labels:
Experiment in all cases: DTP human tumour cell line panel, 48 h
[1] = test system: HOP-92 NSCLC
[2] = test system: HOP-62 NSCLC
[3] = test system: NCI-H522 lung
[4] = test system: DMS 114 small cell lung
[5] = test system: MALME-3M melanoma
[6] = test system: LXFL 529 NSCLC
[7] = test system: SW-620 colon
[8] = test system: SK-OV-3 ovarian
[9] = test system: EKVX NSCLC
[10] = test system: KM20L2 colon
[11] = test system: UO-31 renal
[12] = test system: CCRF-CEM leukemia
[13] = test system: COLO 205 colon
[14] = test system: KM12 colon
[15] = test system: M19-MEL melanoma
[16] = test system: SNB-75 CNS
[17] = test system: DLD-1 colon
[18] = test system: A498 renal
[19] = test system: TK-10 renal
[20] = test system: A549 NSCLC
[21] = test system: M14 melanoma
[22] = test system: K-562 leukemia
[23] = test system: HL-60(TB) leukemia
[24] = test system: OVCAR-3 ovarian
[25] = test system: LOX IMVI melanoma
[26] = test system: HT29 colon
[27] = test system: NCI-H460 lung
[28] = test system: U251 CNS
[29] = test system: OVCAR-8 ovarian
[30] = test system: XF 498 CNS
[31] = test system: OVCAR-5 ovarian
[32] = test system: HCT-15 colon
[33] = test system: HCT-116 colon
[34] = test system: SNB-19 CNS
[35] = test system: NCI-H23 lung
[36] = test system: SF-268 CNS
[37] = test system: SF-295 CNS
[38] = test system: DMS 273 small cell lung
[39] = test system: OVCAR-4 ovarian
[40] = test system: RXF 393 renal
[41] = test system: SR leukemia
[42] = test system: CAKI-1 renal
[43] = test system: SK-MEL-5 melanoma
[44] = test system: SNB-78 CNS
[45] = test system: UACC-257 melanoma
[46] = test system: 786-0 renal
[47] = test system: SN12C renal
[48] = test system: NCI-H226 lung
[49] = test system: MOLT-4 leukemia
[50] = test system: RPMI-8226 leukemia
[51] = test system: UACC-62 melanoma
[52] = test system: HCC-2998 colon
[53] = test system: SF-539 CNS
[54] = test system: IGROV1 ovarian
[55] = test system: T-47D breast
[56] = test system: ACHN renal
[57] = test system: SK-MEL-28 melanoma
[58] = test system: HS 578T breast
[59] = test system: BT-549 breast
[60] = test system: MDA-MB-231 breast
[61] = test system: DU-145 prostate
[62] = test system: PC-3 prostate
[63] = test system: MDA-N
[64] = test system: SK-MEL-2 melanoma
[65] = test system: MCF7 breast
[66] = test system: NCI/ADR-RES ovarian
[67] = test system: MDA-MB-435

SMILES: C=CCN1C(=O)C(=O)N(CC=C)C(=O)C1=O
- TGI [1]: > 100 µM
- TGI [2]: > 100 µM
- TGI [3]: > 100 µM
- TGI [4]: > 100 µM
- TGI [5]: > 100 µM
- TGI [6]: > 100 µM
- TGI [7]: > 100 µM
- TGI [8]: > 100 µM
- TGI [9]: > 100 µM
- TGI [10]: > 100 µM
- TGI [11]: > 100 µM
- TGI [12]: > 100 µM
- TGI [13]: > 100 µM
- TGI [14]: > 100 µM
- TGI [15]: > 100 µM
- TGI [16]: > 100 µM
- TGI [17]: > 100 µM
- TGI [18]: > 100 µM
- TGI [19]: > 100 µM
- TGI [20]: > 100 µM
- TGI [21]: > 100 µM
- TGI [22]: > 100 µM
- TGI [23]: > 100 µM
- TGI [24]: > 100 µM
- TGI [25]: > 100 µM
- TGI [26]: > 100 µM
- TGI [27]: > 100 µM
- TGI [28]: > 100 µM
- TGI [29]: > 100 µM
- TGI [30]: > 100 µM
- TGI [31]: > 100 µM
- TGI [32]: > 100 µM
- TGI [33]: > 100 µM
- TGI [34]: > 100 µM
- TGI [35]: > 100 µM
- TGI [36]: > 100 µM
- TGI [37]: > 100 µM
- TGI [38]: > 100 µM
- TGI [39]: > 100 µM
- TGI [40]: > 100 µM
- TGI [41]: > 100 µM
- TGI [42]: > 100 µM
- TGI [43]: > 100 µM
- TGI [44]: > 100 µM
- TGI [45]: > 100 µM
- TGI [46]: > 100 µM
- TGI [47]: > 100 µM
- TGI [48]: > 100 µM
- TGI [49]: > 100 µM
- TGI [50]: > 100 µM
- TGI [51]: > 100 µM
- TGI [52]: > 100 µM
- TGI [53]: > 100 µM
- TGI [54]: > 100 µM

SMILES: C[N+](C)(C)CC1CCc2ccccc2C1=O (stereo unspecified)
- TGI [1]: 15.9 µM
- TGI [2]: 49.2 µM
- TGI [3]: 0.318 µM
- TGI [4]: 31 µM
- TGI [5]: 3.68 µM
- TGI [6]: 8.54 µM
- TGI [7]: 3.34 µM
- TGI [8]: 32.8 µM
- TGI [9]: 18.2 µM
- TGI [10]: 38.2 µM
- TGI [11]: 32.7 µM
- TGI [12]: > 37.9 µM
- TGI [13]: 19.3 µM
- TGI [55]: 26.2 µM
- TGI [14]: 24.8 µM
- TGI [56]: 14.4 µM
- TGI [15]: 30.8 µM
- TGI [16]: 30.7 µM
- TGI [17]: 17 µM
- TGI [57]: 16.9 µM
- TGI [18]: 50.4 µM
- TGI [19]: 30.5 µM
- TGI [20]: 52.3 µM
- TGI [58]: 35.4 µM
- TGI [21]: 17.9 µM
- TGI [22]: 21.9 µM
- TGI [59]: 29.3 µM
- TGI [60]: 15.8 µM
- TGI [61]: 32.6 µM
- TGI [23]: 27.1 µM
- TGI [24]: 11.8 µM
- TGI [62]: 29.1 µM
- TGI [25]: 41.5 µM
- TGI [26]: 15.2 µM
- TGI [27]: 36.7 µM
- TGI [28]: 10.2 µM
- TGI [29]: 33.5 µM
- TGI [30]: 5.56 µM
- TGI [31]: 29.7 µM
- TGI [32]: 6.61 µM
- TGI [33]: 18.9 µM
- TGI [63]: 12.4 µM
- TGI [34]: 28.9 µM
- TGI [35]: 29.2 µM
- TGI [64]: 31.2 µM
- TGI [36]: 47.4 µM
- TGI [37]: 49.2 µM
- TGI [65]: 5.62 µM
- TGI [38]: 15.1 µM
- TGI [39]: 9.67 µM
- TGI [40]: 29.6 µM
- TGI [41]: 9.23 µM
- TGI [42]: 9.31 µM
- TGI [43]: 29.7 µM
- TGI [44]: 49.4 µM
- TGI [45]: 27.1 µM
- TGI [46]: 19.2 µM
- TGI [47]: 16.3 µM
- TGI [48]: 43.3 µM
- TGI [49]: 7.63 µM
- TGI [66]: 42.1 µM
- TGI [67]: 11 µM
- TGI [50]: 18.4 µM
- TGI [51]: 12 µM
- TGI [52]: 28.8 µM
- TGI [53]: 29.9 µM
- TGI [54]: 28.7 µM
